Laboratory results from patent publication US7256207B2, “Inhibitors of cathepsin S” (IRM LLC, priority 2003, dated 2007).

Legend:
Type in all cases: biochemical
[1] = target: T1, Cathepsin K (Homo sapiens, UniProt P43235); test: Cathepsin K inhibition assay, fluorogenic peptide substrate (selectivity for Cat. S over Cat. K); conditions: ratio of cathepsin K inhibition constant to cathepsin S inhibition constant
T1 sequence (P43235 115-329): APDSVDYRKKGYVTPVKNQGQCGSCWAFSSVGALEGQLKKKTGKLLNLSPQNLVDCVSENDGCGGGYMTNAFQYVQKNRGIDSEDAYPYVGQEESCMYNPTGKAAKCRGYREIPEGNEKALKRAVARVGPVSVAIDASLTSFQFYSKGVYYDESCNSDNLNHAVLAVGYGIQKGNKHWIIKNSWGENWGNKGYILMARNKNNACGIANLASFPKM
Experimental: (§1) The optimal substrate for cathepsin K, acetyl-lysine-histidine-proline-lysine-amino carbamoyl coumarin, was identified from screening a combinatorial library of fluorogenic peptide substrates (Harris, J. L., B. J. Backes, et al. Proc Natl Acad Sci U S A 2000, 97(14), 7754-9). Kinetic measurements are performed in a total reaction volume of 30 μl in 384-well microtiter plates. Cathepsin K, at a final concentration of 3.5 nM (active site), is incubated with the compounds at twelve varying concentrations in a buffer containing 100 mM NaAc (pH5.5), 1 mM EDTA, 100 mM NaCl, 0.01% Brij-35 for 20 minutes at room temperature. Control reactions in the absence of inhibitor are performed in replicates of 24. The reactions are initiated by adding the substrate, acetyl-lysine-histidine-proline-lysine-amino carbamoyl coumarin, to a final concentration of 40 μM. The rate of substrate hydrolysis is measured by monitoring the increase in fluorescence at an excitation wavelength of 380 nm and an emission wavelength of 450 nm that results from cleavage of the aniline bond in the substrate by the enzyme. The apparent inhibition constants for the compounds are determined from the enzyme progress curves (Kuzmic, P., K. C. Elrod, et al. Anal Biochem 2000, 286(1), 45-50) and are then used to calculate the inhibition constants for competitive inhibitors.
(§2) Selectivity for cathepsin S in the presence of cathepsin isozymes was determined by the ratio of the cathepsin isozyme inhibition constant of a compound of the present invention to the cathepsin S inhibition constant of the same compound. Preferred compounds of the present invention selective for cathepsin S have ratios of greater than 10. More preferred compounds of the present invention selective for cathepsin S have ratios of greater than 100. Most preferred compounds of the present invention selective for cathepsin S have ratios of greater than 1000.

[2] = target: Cathepsin B (Homo sapiens, UniProt P07858); test: Cathepsin B inhibition assay, fluorogenic peptide substrate (selectivity for Cat. S over Cat. B); conditions: ratio of cathepsin B inhibition constant to cathepsin S inhibition constant
Experimental: as §1, with “B, acetyl-histidine-proline-valine-lysine-amino” for “K, acetyl-lysine-histidine-proline-lysine-amino”, “B,” for “K,”, “1.5” for “3.5”, “acetyl-histidine-proline-valine-lysine-amino” for “acetyl-lysine-histidine-proline-lysine-amino”, “[…].” for “40 μM.”
as §2

[3] = target: Cathepsin S (Homo sapiens, UniProt P25774); test: Cathepsin S inhibition assay, fluorogenic peptide substrate; conditions: Cathepsin S inhibition constant; pH5.5, 20 minutes preincubation at room temperature; read-out: Ki Cat. S
Chain of Cathepsin S (P25774 115-331, species assumed): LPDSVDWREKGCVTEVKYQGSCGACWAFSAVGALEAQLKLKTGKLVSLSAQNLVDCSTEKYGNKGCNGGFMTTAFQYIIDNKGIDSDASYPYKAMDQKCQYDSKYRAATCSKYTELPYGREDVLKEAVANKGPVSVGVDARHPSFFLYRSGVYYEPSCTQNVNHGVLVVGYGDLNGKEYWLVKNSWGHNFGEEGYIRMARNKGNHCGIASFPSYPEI
Experimental: as §1, with “S, acetyl-histidine-proline-valine-lysine-amino” for “K, acetyl-lysine-histidine-proline-lysine-amino”, “S,” for “K,”, “0.3-3” for “3.5”, “acetyl-histidine-proline-valine-lysine-amino” for “acetyl-lysine-histidine-proline-lysine-amino”, “50” for “40”

[4] = target: Cathepsin L (Homo sapiens, UniProt P07711); test: Cathepsin L inhibition assay, fluorogenic peptide substrate (selectivity for Cat. S over Cat. L); conditions: ratio of cathepsin L inhibition constant to cathepsin S inhibition constant
Chain of Cathepsin L (P07711 114-333, species assumed): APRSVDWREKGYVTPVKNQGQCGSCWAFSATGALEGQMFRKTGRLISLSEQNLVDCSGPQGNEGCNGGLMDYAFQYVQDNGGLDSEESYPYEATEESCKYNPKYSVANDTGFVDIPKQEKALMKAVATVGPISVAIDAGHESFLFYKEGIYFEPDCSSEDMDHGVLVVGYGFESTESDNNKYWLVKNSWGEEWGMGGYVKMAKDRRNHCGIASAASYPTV
Experimental: as §1, with “L, acetyl-histidine-lysine-phenylalanine-lysine-amino” for “K, acetyl-lysine-histidine-proline-lysine-amino”, “L,” for “K,”, “0.1” for “3.5”, “acetyl-histidine-lysine-phenylalanine-lysine-amino” for “acetyl-lysine-histidine-proline-lysine-amino”, “20” for “40”
as §2

CC(C)(C)C(Cn1cnc2cc(Cl)c(Cl)cc21)OC(=O)N[C@@H](CO)CN1CCc2cc(F)ccc21 (mixture of isomers) [Example 3, 1-(5,6-Dichloro-benzimidazol-1-ylmethyl)-2,2-dimethyl-propyl [2-(5-fluoro-2,3-dihydro-indol-1-yl)-1-(R)-hydroxymethyl-ethyl]carbamate]
Selectivity for Cat. S over Cat. K [1]: + (+, >10)
Selectivity for Cat. S over Cat. B [2]: + (+, >10)
Ki [3]: < 100 nM
Selectivity for Cat. S over Cat. L [4]: − (−, <10)

CC(C)(C)C[C@H](Cn1cnc2cc(Cl)c(Cl)cc21)OC(=O)N[C@@H](CO)CN1CCc2cc(F)ccc21 [Example 1, 1-(R)-(5,6-Dichloro-benzimidazol-1-ylmethyl)-3,3-dimethyl-butyl [2-(5-fluoro-2,3-dihydro-indol-1-yl)-1-(R)-hydroxymethyl-ethyl]carbamate]
Selectivity for Cat. S over Cat. K [1]: − (−, <10)
Selectivity for Cat. S over Cat. B [2]: + (+, >10)
Ki [3]: < 10000 nM
Selectivity for Cat. S over Cat. L [4]: + (+, >10)

CC(C)(C)C[C@@H](Cn1cnc2cc(Cl)c(Cl)cc21)OC(=O)N[C@@H](CO)CN1CCc2cc(F)ccc21 [Example 2, 1-(S)-(5,6-Dichloro-benzimidazol-1-ylmethyl)-3,3-dimethyl-butyl [2-(5-fluoro-2,3-dihydro-indol-1-yl)-1-(R)-hydroxymethyl-ethyl]carbamate]
Selectivity for Cat. S over Cat. K [1]: ++ (++, >100)
Selectivity for Cat. S over Cat. B [2]: +++ (+++, >1000)
Ki [3]: < 100 nM
Selectivity for Cat. S over Cat. L [4]: + (+, >10)

C[C@@H](CN1CCc2cc(F)ccc21)NC(=O)O[C@H](Cn1cnc2ccccc21)CC(C)(C)C [Example 4, 1-(S)-(Benzimidazol-1-ylmethyl-3,3-dimethyl)-butyl [2-(5-fluoro-2,3-dihydro-indol-1-yl)-1-(S)-methyl-ethyl]carbamate]
Selectivity for Cat. S over Cat. K [1]: + (+, >10)
Selectivity for Cat. S over Cat. B [2]: +++ (+++, >1000)
Ki [3]: < 100 nM
Selectivity for Cat. S over Cat. L [4]: ++ (++, >100)

C[C@@H](CN1CCc2cc(F)ccc21)NC(=O)O[C@H](CN1CCOCC1)CC(C)(C)C [Example 5, 3,3-Dimethyl-(S)-1-morpholin-4-ylmethyl-butyl [2-(5-fluoro-2,3-dihydro-indol-1-yl)-1-(S)-methyl-ethyl]carbamate]
Selectivity for Cat. S over Cat. K [1]: − (−, <10)
Selectivity for Cat. S over Cat. B [2]: ++ (++, >100)
Ki [3]: < 1000 nM
Selectivity for Cat. S over Cat. L [4]: ++ (++, >100)

C[C@@H](CN1CCc2cc(F)ccc21)NC(=O)O[C@@H](CC1CCCC1)Cn1cnc2ccccc21 [Example 6, 2-(Benzimidazol-1-yl)-1-(S)-cyclopentylmethyl-ethyl [2-(5-fluoro-2,3-dihydro-indol-1-yl)-1-(S)-methyl-ethyl]carbamate]
Selectivity for Cat. S over Cat. K [1]: + (+, >10)
Selectivity for Cat. S over Cat. B [2]: +++ (+++, >1000)
Ki [3]: < 100 nM
Selectivity for Cat. S over Cat. L [4]: ++ (++, >100)

C[C@@H](CNc1ccc(OC(F)F)cc1)NC(=O)O[C@@H](CC1CCCC1)Cn1ccc(C(F)(F)F)n1 [Example 7, 1-(S)-Cyclopentylmethyl-2-(3-trifluoromethyl-pyrazol-1-yl)-ethyl [2-(4-difluoromethoxy-phenylamino)-1-(S)-methyl-ethyl]carbamate]
Selectivity for Cat. S over Cat. K [1]: + (+, >10)
Selectivity for Cat. S over Cat. B [2]: ++ (++, >100)
Ki [3]: < 1000 nM
Selectivity for Cat. S over Cat. L [4]: ++ (++, >100)

C[C@@H](CNc1ccc(OC(F)F)cc1)NC(=O)O[C@@H](CC1CCCC1)Cn1cnc2cc(Cl)c(Cl)cc21 [Example 8, 1-(S)-Cyclopentylmethyl-2-(5,6-dichloro-benzimidazol-1-yl)-ethyl [2-(4-difluoromethoxy-phenylamino)-1-(S)-methyl-ethyl]carbamate]
Selectivity for Cat. S over Cat. K [1]: + (+, >10)
Selectivity for Cat. S over Cat. B [2]: +++ (+++, >1000)
Ki [3]: < 1000 nM
Selectivity for Cat. S over Cat. L [4]: ++ (++, >100)

C[C@@H](CN1CCc2cc(F)ccc21)NC(=O)O[C@@H](CC1CCCC1)Cn1cnc2cc(Cl)c(Cl)cc21 [Example 9, 1-(S)-cyclopentylmethyl-2-(5,6-dichloro-benzimidazol-1-yl)-ethyl [2-(5-fluoro-2,3-dihydro-indol-1-yl)-1-(S)-methyl-ethyl]carbamate]
Selectivity for Cat. S over Cat. K [1]: + (+, >10)
Selectivity for Cat. S over Cat. B [2]: +++ (+++, >1000)
Ki [3]: < 100 nM
Selectivity for Cat. S over Cat. L [4]: + (+, >10)

C[C@@H](CNc1ccc(OC(F)(F)F)cc1)NC(=O)O[C@@H](CC1CCCC1)Cn1cnc2cc(Cl)c(Cl)cc21 [Example 10, 1-(S)-Cyclopentylmethyl-2-(5,6-dichloro-benzimidazol-1-yl)-ethyl [2-(4-trifluoromethoxy-phenylamino)-1-(S)-methyl-ethyl]carbamate]
Selectivity for Cat. S over Cat. K [1]: + (+, >10)
Selectivity for Cat. S over Cat. B [2]: +++ (+++, >1000)
Ki [3]: < 100 nM
Selectivity for Cat. S over Cat. L [4]: + (+, >10)

C[C@@H](CN1CC(C)(C)c2cc(F)ccc21)NC(=O)O[C@H](Cn1cnc2ccccc21)CC(C)(C)C [Example 11, 1-(S)-(Benzimidazol-1-ylmethyl-3,3-dimethyl)-butyl [2-(5-fluoro-3,3-dimethyl-2,3-dihydro-indol-1-yl)-1-(S)-methyl-ethyl]carbamate]
Selectivity for Cat. S over Cat. K [1]: − (−, <10)
Selectivity for Cat. S over Cat. B [2]: +++ (+++, >1000)
Ki [3]: < 100 nM
Selectivity for Cat. S over Cat. L [4]: ++ (++, >100)
